Data from paper PMC8217170, “Phase Ib dose-escalation study of the hypoxia-modifier Myo-inositol trispyrophosphate in patients with hepatopancreatobiliary tumors” (Nature Communications, 2021).
Values joined by “and” are separate entries in the source; they are usually repeats but may differ in a detail not shown here. Identical values can stand only once.

Columns and labels:
[1] = test system: ANG1; test: Serum angiogenesis marker, multiplex bead-based immunoassay (LEGENDplex); assay type: in vivo, human; parameters: ANG1: unit not given here; details: for ANG1: serum, duplicate wells
[2] = parameters: method as in unpublished data obtained from NormOxys; details: minipigs, once weekly; ref unpublished data obtained from NormOxys; cited from earlier work
[3] = test system: patients with PDAC, CRLM, CCA and HCC; test: Progression free and overall survival; assay type: in vivo, human; details: for Follow up from study start / Survival status: individual patients; for Survival status: per 31st of December 2018
Description: Ad hoc outcomes consisted of assessment of overall survival of patients in regard to tumor type and cohort as well as histological assessment of hypoxia markers in tumor tissue of selected patients.
Cohort size was based on the traditional 3 + 3 dose-escalation scheme without formal power or sample size calculation. Data are summarized with descriptive statistics using medians and interquartile ranges (IQRs) as indicated. Pearson’s coefficient was used to test for correlation between numerical variables, and Mann–Whitney U or Kruskal–Wallis tests for differences in continuous variables among groups. Kaplan–Meier curves and the Mantel–Cox log rank test were used for survival analyses. No adjustment for multiple testing was performed.

[4] = in vivo
[5] = test system: target lesions of PDAC, CRLM, CCA and HCC; test: Morphological radiological response, MRI, RECIST 1.1; assay type: in vivo, human; parameters: key to RECIST1.1 response after ITPP / RECIST1.1 response after chemotherapy / RespITPP_Recist / RespChemo_Recist: CR = complete response; PR = partial response; SD = stable disease; PD = progressive disease; Lesion1_pre_DM / Lesion1_post_DM / Lesion1_chemo_DM / Lesion2_pre_DM / Lesion2_post_DM / Lesion2_chemo_DM / Lesion3_pre_DM / Lesion3_post_DM / Lesion3_chemo_DM / Lesion4_pre_DM / Lesion4_post_DM / Lesion4_chemo_DM / Lesion5_pre_DM / Lesion5_post_DM / Lesion5_chemo_DM: unit not given here; details: for RECIST1.1 response after chemotherapy: chemotherapy subsequent to ITPP; for RespITPP_Recist / RespChemo_Recist: RECIST
Protocol: Radiological assessment, consisting of abdominal MRI and FDG-PET-CT, was performed before ITPP administration and after the 3-week treatment course. Where possible, radiological re-evaluation was performed after 3–6 cycles of chemotherapy. Radiological responses were evaluated according to the RECIST 1.1 criteria[56] for MRI and EORTC criteria[57] for FDG-PET-CT imaging.
Then first calculate the sum of diameters (DM) and SUV-activities of radiological target lesions before ITPP (sum_pre), after ITPP (sum_post) and after subsequent chemotherapy (sum_chemo) for assessment of morphological RECIST1.1 (diameter) and metabolical EORTC (SUV activiy) responses.
Patient 1 (dropout after only 2 infusions and subsequent death due to rapid oncological progression) is excluded for radiological assessment due to no follow up imaging available.
In a second step, we calculate percent changes (PC) of diameter and SUV activity between before ITPP, after ITPP and after chemotherapy.

[6] = parameters: method as in Swissmedic special application Nr. SBH12-1310; details: one cancer patient, monotherapy 5600 mg/m2 once a week for 5 weeks; ref Swissmedic special application Nr. SBH12-1310; cited from earlier work
[7] = after ITPP monotherapy, 27 patients assessed
[8] = after chemotherapy subsequent to ITPP, 20 patients

## O=P1(O)OC2C3OP(=O)(O)OP(=O)(O)OC3C3OP(=O)(O)OP(=O)(O)OC3C2OP(=O)(O)O1 (stereo not drawn) [ITPP, Myo-inositol trispyrophosphate]
[1]; following ITPP treatment, 27 patients
  Share of patients with reduced ANG1: 51.9%
[1]; Patient 25, Cohort 8, PDAC, Day 3 post
  ANG1: 692.38
[1]; Patient 25, Cohort 8, PDAC, Day 9 post
  ANG1: 719.05 and 765.98
[1]; Patient 26, Cohort 8, PDAC, Day 3 post
  ANG1: 143.21 and 130.63
[1]; Patient 26, Cohort 8, PDAC, Day 9 post
  ANG1: 207.7 and 218.53
[1]; Patient 27, Cohort 8, CCC, Day 3 post
  ANG1: 904.42 and 799.6
[1]; Patient 27, Cohort 8, CCC, Day 9 post
  ANG1: 835.71 and 800.95
[1]; Patient 28, Cohort 8, CRLM, Day 3 post
  ANG1: 981.48 and 747.77
[1]; Patient 28, Cohort 8, CRLM, Day 9 post
  ANG1: 618.86 and 532.8
[2]
  Human equivalent dose-corrected NOAEL: 43,750 mg/m2
[3]; CCA
  Median OS from start of ITPP infusions: 302 days
  Median progression free survival (PFS): 158 days
[3]; CRLM
  Median OS from start of ITPP infusions: 340 days
  Median progression free survival (PFS): 23 days
[3]; HCC
  Median OS from start of ITPP infusions: 684 days
  Median progression free survival (PFS): 345 days
[3]; PDAC
  Median OS from start of ITPP infusions: 165 days
  Median progression free survival (PFS): 32 days
[3]; cohort 1 (1866 mg/m2)
  Follow up from study start: 16 days and 464 days and 159 days and 398 days
[3]; cohort 1, 1866 mg/m2
  Survival status: Dead
[3]; cohort 2 (3732 mg/m2)
  Follow up from study start: 783 days and 188 days and 158 days
[3]; cohort 2, 3732 mg/m2
  Survival status: Dead
[3]; cohort 3 (5600 mg/m2)
  Follow up from study start: 159 days and 171 days and 206 days
[3]; cohort 3, 5600 mg/m2
  Survival status: Dead
[3]; cohort 4 (7000 mg/m2)
  Follow up from study start: 193 days and 219 days and 684 days and 10 days
[3]; cohort 4, 7000 mg/m2
  Survival status: Dead
[3]; cohort 5 (8750 mg/m2)
  Follow up from study start: 196 days and 202 days and 68 days
[3]; cohort 5, 8750 mg/m2
  Survival status: Dead
[3]; cohort 6 (10500 mg/m2)
  Follow up from study start: 394 days and 510 days and 500 days and 301 days
[3]; cohort 6, 10500 mg/m2
  Survival status: Dead and Alive
[3]; cohort 7 (12390 mg/m2)
  Follow up from study start: 87 days and 380 days and 392 days
[3]; cohort 7, 12390 mg/m2
  Survival status: Dead and Alive
[3]; cohort 8 (14500 mg/m2)
  Follow up from study start: 43 days and 73 days and 266 days and 206 days
[3]; cohort 8, 14500 mg/m2
  Survival status: Dead and Alive
[3]; patients with a lowering of PECAM1/CD31 under ITPP, p = 0.36
  Overall survival: 380 days
[3]; patients with a lowering of VEGFA under ITPP, p = 0.053
  Overall survival: 398 days
[3]; patients without lowering of PECAM1/CD31 under ITPP
  Overall survival: 171 days
[3]; patients without lowering of VEGFA under ITPP
  Overall survival: 196 days
[3]; whole patient population
  Median OS from start of ITPP infusions: 206 days
  Median progression free survival (PFS): 48 days
[4]; human
  Time of peak plasma levels (Cmax) after infusion start: 6 h
[4]
  ITPP baseline levels at infusion start (Cmin): below the detection threshold
[5]; CCA, after ITPP
  Median change in target lesion size, RECIST: 0.88%
[5]; CCA, after chemotherapy
  Median change in target lesion size, RECIST: −18.18%
[5]; CRLM, after ITPP
  Median change in target lesion size, RECIST: 6.67%
[5]; CRLM, after chemotherapy
  Median change in target lesion size, RECIST: −3.12%
[5]; HCC, after ITPP
  Median change in target lesion size, RECIST: 0.81%
[5]; HCC, after chemotherapy
  Median change in target lesion size, RECIST: −30.46%
[5]; ITPP monotherapy
  Share of patients with SD (morphological disease stabilization): 52%
[5]; PDAC, after ITPP
  Median change in target lesion size, RECIST: 12.16%
[5]; PDAC, after chemotherapy
  Median change in target lesion size, RECIST: 0%
[5]; [7]
  Patients with progression (PD), RECIST1.1: 11
  Patients with stable disease (SD), RECIST1.1: 14
[5]; [8]
  Patients with PD, RECIST: 6
  Patients with SD, RECIST: 12
  Patients with partial response (PR), RECIST: 2
[5]; after subsequent chemotherapy
  Share of patients with PR: 10%
  Share of patients with SD: 60%
[5]; individual patients, cohort 1 (1866 mg/m2)
  RECIST1.1 response after ITPP: PD and SD
[5]; individual patients, cohort 1, 1866 mg/m2
  RECIST1.1 response after chemotherapy: SD
[5]; individual patients, cohort 2 (3732 mg/m2)
  RECIST1.1 response after ITPP: SD and PD
[5]; individual patients, cohort 2, 3732 mg/m2
  RECIST1.1 response after chemotherapy: SD
[5]; individual patients, cohort 3 (5600 mg/m2)
  RECIST1.1 response after ITPP: PD and SD
[5]; individual patients, cohort 3, 5600 mg/m2
  RECIST1.1 response after chemotherapy: PD and SD
[5]; individual patients, cohort 4 (7000 mg/m2)
  RECIST1.1 response after ITPP: PD and SD
[5]; individual patients, cohort 4, 7000 mg/m2
  RECIST1.1 response after chemotherapy: PR
[5]; individual patients, cohort 5 (8750 mg/m2)
  RECIST1.1 response after ITPP: SD and PD
[5]; individual patients, cohort 5, 8750 mg/m2
  RECIST1.1 response after chemotherapy: PD
[5]; individual patients, cohort 6 (10500 mg/m2)
  RECIST1.1 response after ITPP: PD and SD
[5]; individual patients, cohort 6, 10500 mg/m2
  RECIST1.1 response after chemotherapy: PD and PR and SD
[5]; individual patients, cohort 7 (12390 mg/m2)
  RECIST1.1 response after ITPP: PD and SD
[5]; individual patients, cohort 7, 12390 mg/m2
  RECIST1.1 response after chemotherapy: SD
[5]; individual patients, cohort 8 (14500 mg/m2)
  RECIST1.1 response after ITPP: PD and SD
[5]; individual patients, cohort 8, 14500 mg/m2
  RECIST1.1 response after chemotherapy: PD and SD
[5]; individual patients, lesion 1, after subsequent chemotherapy
  Lesion1_chemo_DM: 131 and 16 and 90 and 54 and 20 and 33 and 23 and 19 and 28 and 67 and 69 and 42 and 31.4 and 10 and 36
[5]; individual patients, lesion 1, post ITPP
  Lesion1_post_DM: 113 and 27 and 110 and 305 and 107 and 74 and 26 and 50 and 49 and 25 and 20 and 30 and 70 and 58 and 81 and 43 and 44.6 and 33 and 17 and 12 and 42 and 164
[5]; individual patients, lesion 1, pre ITPP (baseline)
  Lesion1_pre_DM: 114 and 27 and 111 and 293 and 106 and 73 and 22 and 26 and 48 and 43 and 49 and 17 and 20 and 21 and 24 and 71 and 50 and 82 and 59 and 43.7 and 32 and 13 and 10 and 38 and 163
[5]; individual patients, lesion 2, after subsequent chemotherapy
  Lesion2_chemo_DM: 13 and 23 and 41 and 24 and 25 and 32 and 16 and 12 and 62 and 14 and 47 and 28.9 and 10 and 30 and 40
[5]; individual patients, lesion 2, post ITPP
  Lesion2_post_DM: 18 and 26 and 56 and 15 and 17 and 58 and 21 and 25 and 12 and 28 and 14 and 49 and 42 and 39.6 and 16 and 31 and 50 and 13
[5]; individual patients, lesion 2, pre ITPP (baseline)
  Lesion2_pre_DM: 17 and 57 and 83 and 13 and 15 and 53 and 26 and 10 and 104 and 24 and 14 and 41 and 25 and 29.7 and 16 and 46
[5]; individual patients, lesion 3, after subsequent chemotherapy
  Lesion3_chemo_DM: 39 and 16 and 10 and 9 and 24 and 7 and 32.6 and 8 and 28
[5]; individual patients, lesion 3, post ITPP
  Lesion3_post_DM: 32 and 23 and 21 and 10 and 26 and 16 and 45.1 and 30 and 14
[5]; individual patients, lesion 3, pre ITPP (baseline)
  Lesion3_pre_DM: 30 and 18 and 20 and 10 and 13 and 66 and 26.6 and 31 and 12
[5]; individual patients, lesion 4, after subsequent chemotherapy
  Lesion4_chemo_DM: 21 and 7 and 10 and 12 and 34
[5]; individual patients, lesion 4, post ITPP
  Lesion4_post_DM: 17 and 23 and 10 and 15 and 44
[5]; individual patients, lesion 4, pre ITPP (baseline)
  Lesion4_pre_DM: 21 and 20 and 10 and 22 and 14 and 38
[5]; individual patients, lesion 5, after subsequent chemotherapy
  Lesion5_chemo_DM: 10 and 18 and 9 and 11
[5]; individual patients, lesion 5, post ITPP
  Lesion5_post_DM: 16 and 18 and 12
[5]; individual patients, lesion 5, pre ITPP (baseline)
  Lesion5_pre_DM: 21 and 15 and 13 and 11 and 14
[5]; individual patients, morphological response after ITPP monotherapy
  RespITPP_Recist: PD and SD
[5]; individual patients, morphological response after subsequent chemotherapy following ITPP
  RespChemo_Recist: PD and SD and PR
[5]; individual patients, new lesion after ITPP monotherapy (Yes/No)
  NewLesion_ITPP: Yes and No
[5]; individual patients, new lesion after subsequent chemotherapy following ITPP (Yes/No)
  NewLesion_Chemo: Yes and No
[5]; response after ITPP, per individual patient, cohort c1, tumor c2
  RespITPP_Recist: PD and SD
[5]; response after chemotherapy following ITPP, per individual patient, cohort c1, tumor c2
  RespChemo_Recist: PD and SD and PR
[6]
  Effect of the drug on the disease: No effect
